Reference: patent US4027005A, “Diagnostic agents” (New England Nuclear Corporation, priority 1974, dated 1977)
Where two headings read alike, the source gives them in different places.

Key:
[1] = cited from earlier work
[2] = Comparative one hour rat organ distribution and organ uptake contrast ratios; type: in vivo; conditions: i.v.; for Kidney/G.I. organ uptake contrast ratio / Kidney/liver organ uptake contrast ratio / Kidney/blood organ uptake contrast ratio: activity per gram; for Kidney/blood organ uptake contrast ratio: 60 min; for Blood, organ distribution / G.I., organ distribution / Kidney, organ distribution / Liver, organ distribution: decay corrected, average of at least two animals
Experimental: Each of the foregoing renal scanning agents is aseptically intravenously injected (0.25 ml containing about 3-5 mCi) into adult rats. One hour later the rats are sacrificed, and the blood collected, weighed and counted. The organs of interest, e.g. the kidney, the liver, and the gastrointestinal tract, are individually weighed and the radioactivity contained therein counted. The amount of radioactivity injected is determined by counting the radioactivity in the syringe before and after injection. The organ distribution values are reported as the percent of the activity injected which is observed in the organ, corrected for the radioactive decay of technetium. The organ uptake contrast ratios are determined by determining the relative activity contained per gram of the organs compared.

[3] = Acute toxicity in mice, intravenous; type: in vivo
[4] = Sub-acute toxicity in mice; type: in vivo; conditions: mice, 800, 400 and 80 mg/kg per day for 15 days
[5] = Sub-acute toxicity in dogs; type: in vivo; conditions: 19 mg/kg per day for 14 days
[6] = test system: infarcted myocardial tissue; experiment: Infarction tests: accumulation in infarcted myocardial tissue; type: in vivo, rat; conditions: for ratio B: activity per gram of infarcted tissue to activity per gram in the blood: 60 min
Experimental: In each case a myocardial infarct is produced in adult rats by surgery. In Example 9, doses of about 3-5 mCi each of the glucoheptonate and tetracycline agents respectively are injected three hours after infarct was induced. The animals are sacrificed one hour after injection and the heart removed. The infarcted tissue, which is visibly distinguishable from normal myocardial tissue, was excised, weighed and counted. The normal myocardial tissue was also weighed and its activity counted and the results are reported as the ratio of the activity per gram of the infarcted tissue to the activity per gram of the normal tissue (A), and the ratio of the activity per gram of the infarcted tissue to activity per gram in the blood (B). Example 10 reports similar results, the difference being that in that example the radionuclides were injected into the live rats eighteen hours after the infarct was induced, rather than three hours.

[7] = Urinary excretion in humans; conditions: within the first hour after injection, 60 min
[8] = Distribution data in rats of the glucoheptonate agent; conditions: within one hour post injection
[9] = Example 9: rat, injected three hours after infarct, sacrificed one hour after injection
[10] = Example 10: rat, injected eighteen hours after infarct

## O=C(O)CNC(=O)c1ccccc1[131I] [131 I-iodohippuran]
[1]; prior art
  accumulation, retention or elimination of prior agents (in words): predominantly eliminated through active secretion by tubular cells

## O=C(O)Cn1cc([131I])c(=O)c([131I])c1.OCCNCCO [131 I-iodopyracet]
[1]; in vivo
  accumulation, retention or elimination of prior agents (in words): simultaneous accumulation in surrounding tissue, especially the liver

## O=C(O)[C@H](O)[C@@H](O)[C@H](O[C@@H]1O[C@H](CO)[C@H](O)[C@H](O)[C@H]1O)[C@H](O)CO [Example 2]
[2]
  Kidney/G.I. organ uptake contrast ratio: 57
  Kidney/liver organ uptake contrast ratio: 102
  Kidney/blood organ uptake contrast ratio: 82
  Blood, organ distribution: 1.8% of the activity inject
  G.I., organ distribution: 6.2% of the activity inject
  Kidney, organ distribution: 23% of the activity inject
  Liver, organ distribution: 1.3% of the activity inject

## O=C(O)[C@H](O)[C@@H](O)[C@H](O)[C@H](O)CO [Example 5]
[2]
  Kidney/G.I. organ uptake contrast ratio: 55
  Kidney/liver organ uptake contrast ratio: 50
  Kidney/blood organ uptake contrast ratio: 40
  Blood, organ distribution: 2.3% of the activity inject
  G.I., organ distribution: 4.8% of the activity inject
  Kidney, organ distribution: 16% of the activity inject
  Liver, organ distribution: 1.4% of the activity inject

## stannous glucoheptonate
[3]
  acute toxicity level (LD50): about 1500 mg/kg
[4]
  sub-acute toxicity: no ill effects
[5]
  sub-acute toxicity: no untoward effects

## technetium-99m-stannous-DTPA [Example 7]
[2]
  Kidney/G.I. organ uptake contrast ratio: 65
  Kidney/liver organ uptake contrast ratio: 77
  Kidney/blood organ uptake contrast ratio: 32
  Blood, organ distribution: 1.0% of the activity inject
  G.I., organ distribution: 1.1% of the activity inject
  Kidney, organ distribution: 5.0% of the activity inject
  Liver, organ distribution: 0.3% of the activity inject
[2]; listed as DTPA
  Kidney/blood organ uptake contrast ratio: 22

## technetium-99m-stannous-glucoheptonate [Example 1]
[2]
  Kidney/G.I. organ uptake contrast ratio: 44
  Kidney/liver organ uptake contrast ratio: 115
  Kidney/blood organ uptake contrast ratio: 105
  Blood, organ distribution: 1.1% of the activity inject
  G.I., organ distribution: 5.0% of the activity inject
  Kidney, organ distribution: 18% of the activity inject
  Liver, organ distribution: 0.7% of the activity inject
[6]; [9]
  ratio A: activity per gram of infarcted tissue to activity per gram of normal tissue: 10.3
  ratio B: activity per gram of infarcted tissue to activity per gram in the blood: 4.5
[6]; [10]
  ratio A: activity per gram of infarcted tissue to activity per gram of normal tissue: 6.7
  ratio B: activity per gram of infarcted tissue to activity per gram in the blood: 3.2
[6]; Examples 9 and 10
  preferential accumulation in infarcted tissue (in words): more effective in preferentially accumulating in infarcted, rather than normal, tissue than the tetracycline infarct agent
[7]
  injected dose excreted in the urine: about 25%
[8]
  total blood activity: less than 2%

## technetium-99m-stannous-tetracycline [Tetracycline complex, reference compound]
[6]; [9]
  ratio A: activity per gram of infarcted tissue to activity per gram of normal tissue: 5.9
[6]; [10]
  ratio A: activity per gram of infarcted tissue to activity per gram of normal tissue: 3.7
